Data set [1] has as its system mock-infected MT-4 cells. Briefly: Cytotoxicity: viability of mock-infected cells by the MTT method. It counts as cell-based, human. On the procedure: (§1) Cells and viruses. MT-4, C8166,H9/IIIB and CEM cells were grown at 37° C. in a 5% CO2 atmosphere in RPMI 1640 medium, supplemented with 10% fetal calf serum (FCS), 100 IU/mL penicillin and 100 μg/mL streptomycin. Cell cultures were checked periodically for the absence of mycoplasma contamination with a MycoTect Kit (Gibco). Human immunodeficiency virus type-I (HIV-1, IIIB strain) was obtained from supernatants of persistently infected H9/IIIB cells.
(§2) Anti-HIV Assays. Activity of the compounds against HIV-1 and HIV-2 multiplication in acutely infected cells was based on the inhibition of virus-induced cytopathicity in MT-4 and C8166 cells, respectively. Briefly, 50 μL of culture medium containing 1×10^4 cells were added to each well of flat-bottom microtiter trays containing 50 μl of culture medium with or without various concentrations of the test compounds. Then 20 μL of an HIV suspension containing 100 CCID50 were added. After a 4-day incubation at 37° C., the number of viable cells was determined by the 3-(4,5-dimethylthiazol-[…])-2,5-diphenyltetrazolium bromide (MTT) method. Cytotoxicity of the compounds was evaluated in parallel with their antiviral activity. It was based on the viability of mock-infected cells, as monitored by the MTT method.
For orientation: Formazan colour is commonly taken as a measure of viable cells.

The subject of data set [2] is HIV-1 (IIIB strain). It counts as cell-based. Particulars: for pEC50: anti-HIV-1 activity; for SI: selectivity index (CC50/EC50). As to the method: Compounds. Compounds were solubilized in DMSO at 200 mM and then diluted into culture medium.
as §1
HIV Titration. Titration of HIV was performed in C8166 cells by the standard limiting dilution method (dilution 1:2, four replica wells per dilution) in 96-well plates. The infectious virus titre was determined by light microscope scoring of cytopathicity after 4 days of incubation and the virus titres were expressed as CCID50/mL.
as §2

Where [3] appears, read: acutely infected MT-4 cells, MTT.

In general, CC50 refers to the concentration giving 50% cytotoxicity. Read a low CC50 as harm at low concentration. Broadly, the pEC50 is the EC50 on a negative log10 scale, so that one unit is a factor of ten.

pEC50: −log10 of the molar value. Where two headings read alike, the source gives them in different places.

Consider `O=c1cc(Cc2c(F)cccc2F)nc(N2CCOCC2)[nH]1` [MC 1188], for which the CC50 in data set [1] (MTT) was above 200 µM. The same compound showed a pEC50 in data set [2] (setting [3]) of 6.22.

`O=c1cc(Cc2c(F)cccc2F)nc(N2CCSCC2)[nH]1` [MC 1193]: the CC50 in data set [1] (MTT) is above 200 µM. The compound also gave a negative-log EC50 (pEC50) in data set [2] (setting [3]) of 7.30.

For `O=c1cc(Cc2c(Cl)cccc2Cl)nc(SC2CCCCC2)[nH]1` [MC 891], the CC50 in data set [1] is above 200 µM. The pEC50 in data set [2] (HIV-1-infected MT-4 cells) is 6.22. The compound further displayed an SI in data set [2] above 333.

`CC(c1cc(=O)[nH]c(SC2CCCC2)n1)c1c(F)cccc1F` (stereo not shown) [MC 1008]: in data set [1], the CC50 is above 200 µM. The pEC50 in data set [2] (HIV-1-infected MT-4 cells) was 7.52. Further, the SI in data set [2] was >6,666.

In turn, `O=c1cc(Cc2c(Cl)cccc2Cl)nc(SC2CCCC2)[nH]1` [MC 888] displayed a CC50 in data set [1] above 200 µM. For the same compound, in data set [2] (HIV-1-infected MT-4 cells), the pEC50 was 6.40. The SI in data set [2] is given as above 500.

In turn, `O=c1cc(Cc2c(F)cccc2F)nc(NC2CCCC2)[nH]1` [MC 1022] yielded a CC50 in data set [1] above 200 µM. This compound had a negative logarithm of the EC50 (pEC50) in data set [2] (HIV-1-infected MT-4 cells) of 7.05. The SI in data set [2] was >2,222.

`Cc1c(Cc2c(F)cccc2F)nc(SCC(C)C)[nH]c1=O` [MC 921] showed a CC50 in data set [1] of 64 µM. This compound also gave a pEC50 in data set [2] (HIV-1-infected MT-4 cells) of 7.00. For the same compound, the SI in data set [2] was found to be 640.

On to `CCC(c1cc(=O)[nH]c(SC2CCCC2)n1)c1cccc2ccccc12` (stereo not shown) [MC 973], for which the CC50 in data set [1] is 51 µM. The pEC50 in data set [2] (HIV-1-infected MT-4 cells) was 5.52. The SI in data set [2] was 17.

`CC1CC(C)CC(Oc2nc(Cc3ccccc3)cc(=O)[nH]2)C1` (stereo not shown) [MC 512] came in with a CC50 in data set [1] above 200 µM. Further, in data set [2] (HIV-1-infected MT-4 cells), the pEC50 was 4.52. The compound also came in with an SI in data set [2] above 6.7.

With `CCc1c(Cc2c(F)cccc2F)nc(SCSC)[nH]c1=O` [MC 1157], the CC50 in data set [1] (MTT) amounted to 50 µM. For the same compound, in data set [2] (setting [3]), the pEC50 was 6.96.

Consider `CCCCNc1nc(C(C)c2c(F)cccc2F)c(C)c(=O)[nH]1` (stereo not shown) [MC 1187], for which, in data set [1] (MTT), the CC50 was determined as 83 µM. This compound had a negative logarithm of the EC50 (pEC50) in data set [2] (setting [3]) of 8.00.

For the compound `CCC(C)Sc1nc(Cc2ccccc2[N+](=O)[O-])cc(=O)[nH]1` (stereo not shown) [MC 817], in data set [1], the CC50 was above 200 µM. In addition, the negative logarithm of the EC50 (pEC50) in data set [2] (HIV-1-infected MT-4 cells) is 6.60. The compound also came in with an SI in data set [2] above 800.

In data set [1], `O=c1cc(Cc2c(F)cccc2F)nc(SC2CCCCC2)[nH]1` [MC 870] showed a CC50 of 200 µM. In data set [2] (HIV-1-infected MT-4 cells), this compound showed a pEC50 of 7.10. In addition, the SI in data set [2] is 2,500.

In data set [1], `Cc1c(Cc2c(F)cccc2F)nc(NCc2ccccc2)[nH]c1=O` [MC 1105] yielded a CC50 of 50 µM. For the same compound, the pEC50 in data set [2] (HIV-1-infected MT-4 cells) is 6.30. Besides, the SI in data set [2] was found to be 100.

In the case of `CC(C)CSc1nc(Cc2c(F)cccc2F)cc(=O)[nH]1` [MC 866], it took 182 µM to reach half-maximal cytotoxicity in data set [1] (CC50). Also, in data set [2] (HIV-1-infected MT-4 cells), the pEC50 is 6.85. For the same compound, the SI in data set [2] is listed as 1,300.

In data set [1], `CC(C)Sc1nc(C(C)c2c(F)cccc2F)cc(=O)[nH]1` (stereo not shown) [MC 1007] yielded a CC50 of 167 µM. The compound also showed a pEC50 in data set [2] (HIV-1-infected MT-4 cells) of 7.30. In data set [2], the SI is on record as 3,340.

`CCCCNc1nc(Cc2c(F)cccc2F)cc(=O)[nH]1` [MC 1077] displayed a CC50 in data set [1] of 100 µM. Besides, the pEC50 in data set [2] (HIV-1-infected MT-4 cells) is 7.00. For the same compound, in data set [2], the SI is 1,000.

For the compound `CC(c1cc(=O)[nH]c(NC2CCCCC2)n1)c1c(F)cccc1F` (stereo not shown) [MC 1180], it took 56 µM to reach half-maximal cytotoxicity in data set [1] (MTT) (CC50). The compound further had a pEC50 in data set [2] (setting [3]) of 7.70.

Compound `CCC(c1cc(=O)[nH]c(SC(C)C)n1)c1c(F)cccc1F` (stereo not shown) [MC 1005] came in with a CC50 in data set [1] of 70 µM. The same compound showed a pEC50 in data set [2] (HIV-1-infected MT-4 cells) of 7.10. In addition, the SI in data set [2] came to 875.

`CCC(C)Sc1nc(Cc2ccc([N+](=O)[O-])cc2)cc(=O)[nH]1` (stereo not shown) [MC 863]: the CC50 in data set [1] worked out at 151 µM. Besides, the pEC50 in data set [2] (HIV-1-infected MT-4 cells) is 5.82. Further, the SI in data set [2] amounted to 101.

In data set [1] (MTT), `Cc1c(C(C)c2c(F)cccc2F)nc(SC2CCCC2)[nH]c1=O` (single isomer, unassigned) [MC 1047+] yielded a CC50 above 200 µM. The compound further showed a pEC50 in data set [2] (setting [3]) of 8.70.

In data set [1], `CC(C)CSc1nc(Cc2c(Cl)cccc2Cl)cc(=O)[nH]1` [MC 885] came in with a CC50 above 200 µM. This compound also showed a pEC50 in data set [2] (HIV-1-infected MT-4 cells) of 6.35. The SI in data set [2] is on record as above 444.

As to `CNc1nc(C(C)c2c(F)cccc2F)cc(=O)[nH]1` (stereo not shown) [MC 1178], in data set [1] (MTT), the CC50 stood at 106 µM. The compound also had a pEC50 in data set [2] (setting [3]) of 6.96.

`CC(C)Nc1nc(Cc2c(F)cccc2F)cc(=O)[nH]1` [MC 979] gave a CC50 in data set [1] above 200 µM. In data set [2] (HIV-1-infected MT-4 cells), the pEC50 is 6.42. The compound also registered an SI in data set [2] above 526.

Compound `CSCSc1nc(Cc2ccccc2)cc(=O)[nH]1` [MC 1140] showed a CC50 in data set [1] (MTT) above 200 µM. Moreover, the pEC50 in data set [2] (setting [3]) is 4.70.

Source of the values: US6545007B2, “Methods for inhibiting the transmission of HIV using topically applied substituted 6-benzyl-4-oxopyrimidines” (Idenix (Cayman) Limited, priority 2000, dated 2003).
